Laboratory results reported in PubChem BioAssay AID2060501 (Molecular Pharmacology Branch, DTP, NCI, 2025).

Tested on: 282377-053-R-J1-PDC complex spheroids, viability
Assay: Anticancer human tumor 282377-053-R-J1-PDC patient-derived colon adenocarcinoma cell line growth inhibition [GQUAD]
Details: for IC50: curve of first compound; for viability, T/C: stronger effect = lower value; active = viability on the fitted dose curve at most 10% of control; inactive = the rest
Excerpt: DNA G-quadruplex Stabilizer Agents in Combinations in Complex Spheroids
A high-throughput screen of multi-cell type tumor spheroids was designed to identify active combinations of DNA G-quadruplex stabilizer agents and targeted small molecules. Complex spheroids include a stromal component modeled by human endothelial cells (HUVEC) and fibroblasts modeled by human mesenchymal stem cells (MSCs). The concentration ranges selected for each drug and investigational agent were based upon clinically achievable concentrations if the clinical Cmax of the agent was known.
Compounds. The drugs and investigational agents: pidnarulex (CX-5461; NSC782164), APTO-253 (NSC789042), BRACO-19 (NSC847499), peposertib (NSC802822), ceralasertib (NSC780249), elimusertib (NSC800525), camonsertib (NSC841442), AZD-1390 (NSC803789), olaparib (NSC753686), talazoparib (NSC767125), ART-558 (NSC835418), sotorasib (NSC818433), MRTX-1133 (NSC836407), SN-38 (NSC673596), topotecan (NSC609699), etoposide (NSC141540), doxorubicin (NSC123127), gemcitabine (NSC613327), 5-fluorouracil (NSC19893), paclitaxel (NSC125973), vemurafenib (NSC761431), panobinostat (NSC761190), R-306465 (JNJ-16241199; NSC773264), adavosertib (NSC754352), TP-3654 (NSC805149), carboplatin (NSC241240), KSQ-4279 (NSC840948), and staurosporine (NSC755774) were obtained from the National Cancer Institute (NCI) Developmental Therapeutics Program Chemical Repository (34). The FDA-approved anticancer drug set is available from the NCI Developmental Therapeutics Program. […] The stock solutions were prepared in dimethyl sulfoxide (DMSO, Sigma-Aldrich, St. Louis, MO, cat. D2650) at 800-fold the tested concentration and stored at -70 degrees C prior to their use. All drugs and investigational agents were tested over a range starting from a high concentration at or near the clinical Cmax and decreasing in half-log increments. If the clinical Cmax for an agent had not been determined, the highest concentration tested was 10 microM.
2.3 Cell Culture. All cells were maintained in an incubator at 37 degrees C and 5% CO2 with 95% humidity. The PDC lines were cultured according to standard operating procedures established by the NCI PDMR. All PDCs were thawed and cultured in Matrigel-coated flasks prepared with a working solution of 1X Ham's F-12 nutrient mix, without supplementation (Invitrogen, cat. 11765054), 100 U/mL penicillin-streptomycin (Invitrogen, cat. 15140122), and 2.5% Matrigel (Corning Inc., cat. 354248) for the first three passages. The 857933-349-R-J2-PDC line was cultured in 6C/Colon 1B media, which includes advanced DMEM/F-12 (Thermo Fisher Scientific, cat. 12634028), 10 mM HEPES (Thermo Fisher Scientific, cat. 15630080), 1X GlutaMAX supplement (Thermo Fisher Scientific, cat. 35050061), 0.1 mg/mL primocin (InvivoGen, cat. ant-pm-2), 10% defined fetal bovine serum, heat inactivated (HyClone Laboratories Inc., cat. SH30070.03HI), 50% L-WRN conditioned media (ATCC, cat. CRL-3276), 1.25 mM N-Acetyl-L-cysteine (Sigma-Aldrich, cat. A9165), 10 mM nicotinamide (Sigma-Aldrich, cat. N0636), 1X B-27 supplement (Thermo Fisher Scientific, cat. 17504044), 1X N-2 supplement (Thermo Fisher Scientific, cat. 17502048), 10 microM Y-27632 dihydrochloride (Tocris Bioscience, cat. 1254), and 50 ng/mL human EGF recombinant protein (Thermo Fisher Scientific, cat. PHG0311). The 485176-168-R4-J1-PDC line was cultured in Panc media, which includes all 6C/Colon 1B media components plus 100 ng/mL human FGF-10 (Thermo Fisher Scientific, cat. 100-26), 500 nM SB-431542 (Selleckchem, cat. S1067), and gastrin (Tocris, cat. 3006).
[…]

[1] = second compound 0.0316 µM, first compound 0.0316 µM
[2] = second compound 0.0316 µM, first compound 0.316 µM
[3] = second compound 0.1 µM, first compound 0.0316 µM
[4] = second compound 0.1 µM, first compound 0.316 µM
[5] = second compound 0.316 µM, first compound 0.0316 µM
[6] = second compound 0.316 µM, first compound 0.316 µM
[7] = second compound 1 µM, first compound 0.0316 µM
[8] = second compound 1 µM, first compound 0.316 µM
[9] = second compound 3.16 µM, first compound 0.0316 µM
[10] = second compound 3.16 µM, first compound 0.316 µM
[11] = second compound 10 µM, first compound 0.0316 µM
[12] = second compound 10 µM, first compound 0.316 µM
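Also: spheroids exposed to compounds for 7 days before readout.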
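For viability, T/C in this document: percent of vehicle DMSO control viability with 100% = untreated-like growth.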

C=CC(=O)N1CCN(c2nc(=O)n(-c3c(C)ccnc3C(C)C)c3nc(-c4c(O)cccc4F)c(F)cc23)C(C)C1 (centres undefined) + CN(C)c1ccc(Nc2c3ccc(NC(=O)CCN4CCCC4)cc3nc3cc(NC(=O)CCN4CCCC4)ccc23)cc1
inactive: viability, T/C [1] 105% | viability, T/C (second compound 0.0316 µM, first compound 0.1 µM) 104% | viability, T/C [2] 99.3% | viability, T/C (second compound 0.0316 µM, first compound 1 µM) 99% | viability, T/C (second compound 0.0316 µM, first compound 3.16 µM) 87% | viability, T/C (second compound 0.0316 µM, first compound 10 µM) 79% | viability, T/C [3] 107% | viability, T/C (second compound 0.1 µM, first compound 0.1 µM) 94.5% | viability, T/C [4] 110% | viability, T/C (second compound 0.1 µM, first compound 1 µM) 96% | viability, T/C (second compound 0.1 µM, first compound 3.16 µM) 107% | viability, T/C (second compound 0.1 µM, first compound 10 µM) 66.6% | viability, T/C [5] 115% | viability, T/C (second compound 0.316 µM, first compound 0.1 µM) 97.6% | viability, T/C [6] 103% | viability, T/C (second compound 0.316 µM, first compound 1 µM) 101% | viability, T/C (second compound 0.316 µM, first compound 3.16 µM) 103% | viability, T/C (second compound 0.316 µM, first compound 10 µM) 72.4% | viability, T/C [7] 112% | viability, T/C (second compound 1 µM, first compound 0.1 µM) 99.5% | viability, T/C [8] 98.5% | viability, T/C (second compound 1 µM, first compound 1 µM) 95.9% | viability, T/C (second compound 1 µM, first compound 3.16 µM) 90.5% | viability, T/C (second compound 1 µM, first compound 10 µM) 92.8% | viability, T/C [9] 105% | viability, T/C (second compound 3.16 µM, first compound 0.1 µM) 90.2% | viability, T/C [10] 100% | viability, T/C (second compound 3.16 µM, first compound 1 µM) 84.9% | viability, T/C (second compound 3.16 µM, first compound 3.16 µM) 79.9% | viability, T/C (second compound 3.16 µM, first compound 10 µM) 89.9% | viability, T/C [11] 111% | viability, T/C (second compound 10 µM, first compound 0.1 µM) 93.3% | viability, T/C [12] 94.5% | viability, T/C (second compound 10 µM, first compound 1 µM) 79.8% | viability, T/C (second compound 10 µM, first compound 3.16 µM) 88.3% | viability, T/C (second compound 10 µM, first compound 10 µM) 86.5%
> 10000 nM: IC50 (second compound 0.0316 µM) | IC50 (second compound 0.1 µM) | IC50 (second compound 0.316 µM) | IC50 (second compound 1 µM) | IC50 (second compound 3.16 µM) | IC50 (second compound 10 µM)

CCc1c2c(nc3ccc(O)cc13)-c1cc3c(c(=O)n1C2)COC(=O)[C@]3(O)CC + CN(C)c1ccc(Nc2c3ccc(NC(=O)CCN4CCCC4)cc3nc3cc(NC(=O)CCN4CCCC4)ccc23)cc1
211 nM: IC50 (second compound 3.16 µM)
218 nM: IC50 (second compound 10 µM)
148 nM: IC50 (second compound 0.316 µM)
170 nM: IC50 (second compound 0.0316 µM)
117 nM: IC50 (second compound 1 µM)
inactive: viability, T/C (second compound 0.0316 µM, first compound 0.000999 µM) 102% | viability, T/C (second compound 0.0316 µM, first compound 0.00316 µM) 104% | viability, T/C (second compound 0.0316 µM, first compound 0.00999 µM) 85.5% | viability, T/C [1] 69.5% | viability, T/C (second compound 0.0316 µM, first compound 0.0999 µM) 61.8% | viability, T/C [2] 40% | viability, T/C (second compound 0.1 µM, first compound 0.000999 µM) 104% | viability, T/C (second compound 0.1 µM, first compound 0.00316 µM) 90.9% | viability, T/C (second compound 0.1 µM, first compound 0.00999 µM) 92.1% | viability, T/C [3] 60.7% | viability, T/C (second compound 0.1 µM, first compound 0.0999 µM) 61.2% | viability, T/C [4] 40.9% | viability, T/C (second compound 0.316 µM, first compound 0.000999 µM) 110% | viability, T/C (second compound 0.316 µM, first compound 0.00316 µM) 107% | viability, T/C (second compound 0.316 µM, first compound 0.00999 µM) 71.6% | viability, T/C [5] 70.9% | viability, T/C (second compound 0.316 µM, first compound 0.0999 µM) 53.8% | viability, T/C [6] 43% | viability, T/C (second compound 1 µM, first compound 0.000999 µM) 95.2% | viability, T/C (second compound 1 µM, first compound 0.00316 µM) 97.6% | viability, T/C (second compound 1 µM, first compound 0.00999 µM) 92.4% | viability, T/C [7] 76.8% | viability, T/C (second compound 1 µM, first compound 0.0999 µM) 51.2% | viability, T/C [8] 42.5% | viability, T/C (second compound 3.16 µM, first compound 0.000999 µM) 103% | viability, T/C (second compound 3.16 µM, first compound 0.00316 µM) 105% | viability, T/C (second compound 3.16 µM, first compound 0.00999 µM) 91.6% | viability, T/C [9] 68.7% | viability, T/C (second compound 3.16 µM, first compound 0.0999 µM) 63.1% | viability, T/C [10] 43.7% | viability, T/C (second compound 10 µM, first compound 0.000999 µM) 108% | viability, T/C (second compound 10 µM, first compound 0.00316 µM) 102% | viability, T/C (second compound 10 µM, first compound 0.00999 µM) 99.5% | viability, T/C [11] 86.2% | viability, T/C (second compound 10 µM, first compound 0.0999 µM) 63.1% | viability, T/C [12] 43.6%
162 nM: IC50 (second compound 0.1 µM)
